Measured values reported in patent US11008346B2, “Beta-lactamase inhibitors” (priority 2014, dated 2021).
Like-named read-outs stand apart in the source and are kept apart here.

Legend:
KPC-2 β-lactamase = molecular target: T1, KPC-2 β-lactamase (Klebsiella pneumoniae, UniProt Q9F663); experiment: β-lactamase enzyme inhibition, KPC-2; format: biochemical
T1 construct: made in house; host or cells: E. coli BL21(DE3)
Outline: (§1)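 IC50 was the inhibitor concentration halving the initial hydrolysis rate versus no-inhibitor wells, following a 15 min 37° C. enzyme–inhibitor preincubation. Substrates: imipenem read at 300 nm for KPC-2, cefotaxime at 260 nm for SHV-5, and nitrocefin (100 μM final) at 486 nm for OXA-1 and p99 AmpC. Enzymes were recombinant untagged proteins from E. coli BL21(DE3).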

[1] = system: E. coli ESBL4 expressing CTX-M-15; experiment: broth microdilution MIC, E. coli CTX-M-15; format: cell-based; conditions: Fixed CAZ (ceftazidime) 4 μg/mL
Outline: (§2)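 Following CLSI broth microdilution, plates were read by eye for MIC after 16–20 h incubation at 37 °C. Each well held a fixed 4 μg/mL β-lactam overlay plus test compound serially halved from 32 to 0.25 μg/mL in CAMHB. Inocula came from 3–5 h broth cultures.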

[2] = system: K. pneumoniae A-1797 expressing KPC-2 and VIM-4; experiment: broth microdilution MIC, K. pneumoniae KPC-2 and VIM-4; format: cell-based; conditions: Fixed Mero (meropenem) 4 μg/mL
Outline: as §2

[3] = system: S. aureus MSSA-7 producing penicillinase PC-1; experiment: broth microdilution MIC, S. aureus PC-1; format: cell-based; conditions: Fixed Pip (piperacillin) 4 μg/mL
From the text: (§3) To determine the ability of test compounds to potentiate the inhibition of the growth of bacterial strains that produce beta-lactamase enzymes, classic cell based broth microdilution MIC assays were employed. Six bacteria strains producing beta-lactamase enzymes were used: E. coli expressing the Class A Extended Spectrum Beta-Lactamase (ESBL) CTX-M-15, E. cloacae expressing the Class C P99, K. pneumoniae expressing the Class A carbapenemase KPC-3, P. aeruginosa expressing the Class B carbapenemase VIM-2, K pneumoniae expressing the class A carbapenemase KPC-2 and the class B carbapenemase VIM-4, and S. aureus producing the Class A penicillinase PC-1. The assay was conducted in Cation Adjusted Mueller Hinton Broth (CAMHB, BD #212322, BD Diagnostic Systems, Sparks, Md.). Bacteria strains were grown for 3-5 hours in CAMBH broth. Test compounds were added to a microtiter plate in 2-fold serial dilutions in CAMHB in a final concentration range of 32 μg/mL to 0.25 μg/ml. An overlay of CAMHB containing a Beta-lactam was added to the compounds at a final static concentration of 4 μg/ml. […] In addition to the titration of test compounds the MICs of a panel of control beta-lactams is also tested to ensure the strains are behaving consistently from test to test. Once the test compound and antibiotics are added the plates can be inoculated according to CLSI broth microdilution method. After inoculation the plates are incubated for 16-20 hours at 37° C., then the Minimal Inhibitory Concentration (MIC) of the test compound is determined visually.
(§4) Using the methodology described above, examples of the current invention were evaluated for their ability to inhibit the growth of β-lactamase-producing bacteria in the presence of a β-lactam antibiotic.
(§5) Representative results are shown in Table 4 where A represents an MIC of the fixed β-lactam antibiotic in the presence of >32 µg/mL of a β-lactamase inhibitor of exemplary compounds, B represents the MIC in the presence of between 8 and 32 µg/mL of a β-lactamase inhibitor of exemplary compounds, and C represents the MIC in the presence of ≤4 µg/mL of a β-lactamase inhibitor of exemplary compounds. NT=Not Tested.

[4] = system: P. aeruginosa Ps296 expressing VIM-2; experiment: broth microdilution MIC, P. aeruginosa VIM-2; format: cell-based; conditions: Fixed Mero (meropenem) 4 μg/mL
From the text: as §3, §4, §5

[5] = system: K. pneumoniae 156319 expressing KPC-3; experiment: broth microdilution MIC, K. pneumoniae KPC-3; format: cell-based; conditions: Fixed Mero (meropenem) 4 μg/mL
Outline: as §2

SHV-5 β-lactamase = molecular target: T2, SHV-5 β-lactamase (Klebsiella pneumoniae, UniProt P0A3M1); experiment: β-lactamase enzyme inhibition, SHV-5; format: biochemical
T2 construct: made in house; host or cells: E. coli BL21(DE3)
Outline: as §1

[6] = molecular target: T3, VIM-2 metallo β-lactamase (Pseudomonas aeruginosa, UniProt Q9K2N0); experiment: β-lactamase enzyme inhibition, VIM-2; format: biochemical; conditions: Nitrocefin 100 μM, 486 nm; 15 min at 37° C. preincubation; read-out: IC50 VIM-2 (Class B)
T3 construct: made in house; host or cells: E. coli BL21(DE3)
Outline: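 Inhibitor and enzyme sat together 15 min at 37° C before 100 μM nitrocefin (final) was added and 486 nm absorbance read for 10 min. IC50 is the concentration halving initial hydrolysis rate relative to uninhibited wells. Protein came from Q sepharose anion exchange at pH 7.5, repeated to >90% purity.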

[7] = system: E. cloacae 144200 expressing Class C P99 AmpC; experiment: broth microdilution MIC, E. cloacae P99; format: cell-based; conditions: Fixed CAZ (ceftazidime) 4 μg/mL
Outline: as §2

OXA-1 β-lactamase = molecular target: T4, OXA-1 β-lactamase (Escherichia coli, UniProt P13661); experiment: β-lactamase enzyme inhibition, OXA-1; format: biochemical; conditions: Nitrocefin 100 μM, 486 nm; 15 min at 37° C. preincubation; read-out: IC50 OXA-1 (Class D)
T4 construct: made in house; host or cells: E. coli BL21(DE3)
Outline: as §1

p99 AmpC β-lactamase = molecular target: T5, p99 AmpC β-lactamase (Enterobacter cloacae, UniProt P05364); experiment: β-lactamase enzyme inhibition, p99 AmpC; format: biochemical
T5 construct: made in house; host or cells: E. coli BL21(DE3)
Outline: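 Inhibitor and enzyme were incubated 15 min at 37°C first. The enzyme was recombinant p99 AmpC, untagged, from E. coli BL21(DE3), purified by ion-exchange and size-exclusion chromatography.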

T4 sequence (P13661 26-276): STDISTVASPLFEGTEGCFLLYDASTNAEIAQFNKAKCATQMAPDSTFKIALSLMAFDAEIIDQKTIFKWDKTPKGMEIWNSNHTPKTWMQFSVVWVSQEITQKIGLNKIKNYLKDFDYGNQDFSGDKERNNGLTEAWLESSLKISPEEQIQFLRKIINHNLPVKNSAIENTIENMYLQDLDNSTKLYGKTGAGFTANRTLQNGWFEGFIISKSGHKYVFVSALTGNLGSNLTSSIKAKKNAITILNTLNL
T5 sequence (P05364 21-381): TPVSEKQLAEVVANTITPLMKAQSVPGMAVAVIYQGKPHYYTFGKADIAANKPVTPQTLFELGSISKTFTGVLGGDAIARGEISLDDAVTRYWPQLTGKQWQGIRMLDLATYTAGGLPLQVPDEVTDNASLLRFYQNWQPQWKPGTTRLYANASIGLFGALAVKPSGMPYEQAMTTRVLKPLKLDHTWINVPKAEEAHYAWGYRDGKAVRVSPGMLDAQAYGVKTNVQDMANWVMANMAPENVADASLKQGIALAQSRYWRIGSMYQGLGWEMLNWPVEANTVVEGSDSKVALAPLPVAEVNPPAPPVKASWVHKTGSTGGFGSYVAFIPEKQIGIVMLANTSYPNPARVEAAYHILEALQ
T1 sequence (Q9F663 25-293, looked up): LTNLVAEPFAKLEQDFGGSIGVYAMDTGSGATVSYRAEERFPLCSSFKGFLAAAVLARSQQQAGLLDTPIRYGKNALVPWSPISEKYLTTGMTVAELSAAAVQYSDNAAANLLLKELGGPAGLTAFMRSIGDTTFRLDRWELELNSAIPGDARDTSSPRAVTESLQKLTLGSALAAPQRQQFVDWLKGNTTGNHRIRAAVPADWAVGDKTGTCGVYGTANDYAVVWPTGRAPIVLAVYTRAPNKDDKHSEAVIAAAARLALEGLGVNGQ
T2 sequence (P0A3M1 22-286): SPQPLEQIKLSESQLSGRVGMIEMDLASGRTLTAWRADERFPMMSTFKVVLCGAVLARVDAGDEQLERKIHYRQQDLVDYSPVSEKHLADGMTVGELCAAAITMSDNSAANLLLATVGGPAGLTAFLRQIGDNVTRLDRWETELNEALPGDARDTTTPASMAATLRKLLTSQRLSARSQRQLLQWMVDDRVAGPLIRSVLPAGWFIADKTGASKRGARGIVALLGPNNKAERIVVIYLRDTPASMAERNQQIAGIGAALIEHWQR

| SMILES | IC50 (KPC-2 β-lactamase; imipenem substrate, 300 nm, 15 min at 37° C. preincubation, read-out: IC50 KPC-2 (Class A)) | MIC of exemplary compounds in presence of fixed β-lactams, E. coli ESBL4 CTX-M-15 [1] | MIC of exemplary compounds in presence of fixed β-lactams, K.P. A-1797 KPC-2 VIM-4 [2] | MIC of exemplary compounds in presence of fixed β-lactams, S. aureus MSSA-7 PC-1 [3] | MIC of exemplary compounds in presence of fixed β-lactams, P. aerug. Ps296 VIM-2 [4] | MIC of exemplary compounds in presence of fixed β-lactams, K.P. 156319 KPC-3 [5] | IC50 (SHV-5 β-lactamase) | IC50 [6] | MIC of exemplary compounds in presence of fixed β-lactams, E. cl. 144200 p99 AmpC [7] | IC50 (OXA-1 β-lactamase) | IC50 (p99 AmpC β-lactamase) | IC50 (KPC-2 β-lactamase) |
| --- | --- | --- | --- | --- | --- | --- | --- | --- | --- | --- | --- | --- |
| CC(C)CC(=O)N[C@H]1Cc2cccc(C(=O)O)c2OB1O [Example 6, (R)-2-Hydroxy-3-(3-methyl-butyrylamino)-3,4-dihydro-2H-benzo[e][1,2]oxaborinine-8-carboxylic acid] | < 0.1 µM | C (C represents the MIC in the presence of ≤4 g/mL of a β-lactamase inhibitor) | A (A represents an MIC of the fixed β-lactam antibiotic in the presence of >32 g/mL of a β-lactamase inhibitor) | C (C represents the MIC in the presence of ≤4 g/mL of a β-lactamase inhibitor) | B (B represents the MIC in the presence of between 8 and 32 g/mL of a β-lactamase inhibitor) | C (C represents the MIC in the presence of ≤4 g/mL of a β-lactamase inhibitor) | < 0.1 µM | 1 to 10 µM | C (C represents the MIC in the presence of ≤4 g/mL of a β-lactamase inhibitor) | < 0.1 µM | < 0.1 µM | – |
| N#CCCC(=O)N[C@H]1Cc2cccc(C(=O)O)c2OB1O [Example 8, (R)-3-(3-Cyano-propionylamino)-2-hydroxy-3,4-dihydro-2H-benzo[e][1,2]oxaborinine-8-carboxylic acid] | – | C (C represents the MIC in the presence of ≤4 g/mL of a β-lactamase inhibitor) | C (C represents the MIC in the presence of ≤4 g/mL of a β-lactamase inhibitor) | C (C represents the MIC in the presence of ≤4 g/mL of a β-lactamase inhibitor) | C (C represents the MIC in the presence of ≤4 g/mL of a β-lactamase inhibitor) | C (C represents the MIC in the presence of ≤4 g/mL of a β-lactamase inhibitor) | < 0.1 µM | 0.1 to 1 µM | C (C represents the MIC in the presence of ≤4 g/mL of a β-lactamase inhibitor) | < 0.1 µM | < 0.1 µM | < 0.1 µM |
| CC(=O)CCC(=O)N[C@H]1Cc2cccc(C(=O)O)c2OB1O [Example 10, (R)-2-Hydroxy-3-(4-oxo-pentanoylamino)-3,4-dihydro-2H-benzo[e][1,2]oxaborinine-8-carboxylic acid] | – | C (C represents the MIC in the presence of ≤4 g/mL of a β-lactamase inhibitor) | C (C represents the MIC in the presence of ≤4 g/mL of a β-lactamase inhibitor) | C (C represents the MIC in the presence of ≤4 g/mL of a β-lactamase inhibitor) | C (C represents the MIC in the presence of ≤4 g/mL of a β-lactamase inhibitor) | C (C represents the MIC in the presence of ≤4 g/mL of a β-lactamase inhibitor) | < 0.1 µM | 0.1 to 1 µM | C (C represents the MIC in the presence of ≤4 g/mL of a β-lactamase inhibitor) | < 0.1 µM | < 0.1 µM | 0.1 to 1 µM |
